{"source": "patent US10975116B2", "about": "“Methods of treating and preventing gastrointestinal motility disorders using aminosterols” (Enterin, Inc., priority 2013, dated 2021)", "key": {"mesenteric nerve": {"tested_on": "mesenteric nerve", "experiment": "Mesenteric nerve multiunit recording after intraluminal squalamine in colon", "assay_type": "in vivo, mouse", "text": "Under appropriate and approved anesthesia, the distal colon of a mouse was externalized from the abdomen, along with the mesentary. The mesenteric blood vessels and lymphatics were carefully dissected from the mesenteric nerve, a structure that contains both the vagus (efferent and afferent) and spinal afferents. The nerve was cut, and the free end (which receives signals from the gut) was introduced into a capillary housing a silver electrode, along with the appropriate electronics required to detect and amplify weak electrical signals pulsing from the gut through the mesenteric nerve. […] Concentrations of 3, 10, 30 and 100 μM squalamine were evaluated. Responses to squalamine application were discernible at 30 μM but robust and reproducible responses were first evident at 100 μM. […] Paired experiments were comparisons of average discharge rates of a control recording period with a three-minute period during the peak response to squalamine. Statistical comparisons were made using paired t-tests. Squalamine increased the background firing rate from (mean±SD) 2.0±1.2 to 5.2±3.1 Hz (P=0.03). The latency to the onset of the firing increase was 4.4±4.1 min, while the latency to peak of the firing rate increase 12±7.5 min (FIG. 1)."}, "gastrointestinal tract": {"tested_on": "gastrointestinal tract", "experiment": "Aminosterol Induced GI Response after oral capsule in a human", "assay_type": "in vivo", "description": "Gelatin capsules were prepared for oral administration. Capsules were coated in shellac to prevent their release within the stomach. Furthermore, because squalamine and related aminosterols have antibiotic activity, enteric coating prevents the drug from altering the microbial populations of the stomach. […] Squalamine dilactate powder, 99% pure, or 1436 hydrochloride, 99% pure, was added manually into either Size 0 (for the 200 mg dose) or Size 1 (for the 100 mg dose) gelatin capsules. No excipient was added. The capsules were coated twice in 5% shellac (80% acetone/20% ethanol) and dried before use.\n200 mg of squalamine (lactate salt, excipient free) in a coated gelatin capsule was administered orally to a human in the morning on an empty stomach, with water. Squalamine was synthesized as described in Zasloff et al 2011. Within 2 hours nausea was experienced, lasting about 30 minutes. At 2.5 hours, increased peristalsis (“rumbling gut”) was experienced, lasting several minutes. At about 3 hours, a clear watery discharge of about 200 ml was passed rectally. A second episode occurred at 3.2 hours. Following this episode, bowel sounds quieted. No nausea or discomfort was subsequently experienced. Appetite was near normal. Despite normal feeding, feces were not passed for 2.5 days over which time no discomfort was experienced. The first feces passed after this quiescent period was soft and relatively small considering the intake of food and the time interval. Usual bowel functions resumed by about 4 days after squalamine administration.\n200 mg of 1436 (HCl salt, excipients free) in a gelatin capsule was administered orally to a human in the morning on an empty stomach, with water. […] At 2 hours, about 100 ml of clear watery diarrhea, recurring at 2.75 hours, 3 hours, 3.25 hours, and 4 hours, with progressively lesser volumes of liquid discharged. First bowel movement was passed at 3.5 days, of normal consistency. The subject experienced no abdominal discomfort, bloating, etc over this period. Usual bowel functions resumed by about 4.5 days after administration of Aminosterol 1436. […]\n100 mg of squalamine was orally administered in a capsule as in the first example. […] A period of “bowel quiet” was induced, however, that lasted 2 days, after which normally formed feces were passed."}, "[1]": {"tested_on": "embryonal rhabdomyosarcoma", "experiment": "Oral squalamine in sarcoma with dose finding by GI response, single subject", "assay_type": "in vivo, human", "description": "A person was seen because of the recurrence of an embryonal rhabdomyosarcoma. They noticed a mass in their left groin. […] The mass was surgically excised. The patient was then treated with a cocktail of chemotherapeutic agents. Several months later the mass was seen to recur in the left groin. The mass was again excised. Several months later, a tumor was gain noted in the groin, with a large mass present in the left lung.\nAt 300 mg daily, a clear effect was noted, that being mild nausea, 2 hours after dosing, followed by a bowel movement later in the day."}, "NHE-3 transporter": {"tested_on": "NHE-3 transporter", "settings": "electrostatic mechanism, epithelial cell; cited from earlier work"}, "[2]": {"tested_on": "Opioid induced constipation", "experiment": "Oral squalamine in opioid (codeine) induced constipation, single subject", "assay_type": "in vivo, human", "description": "A normal subject began dosing with 1 tab codeine 30 mg/acetaminophen 300 mg at 8 A on Day 1, and repeated on Day 2 and Day 3. Normal bowel movement frequency was 1 or more stools/day, normally formed. Prior to codeine on Day 1, subject passed a normal stool in the AM. No bowel movements from the start of dosing through the 8 A Day 3 dose. No cramping; some gas. Some sense of fullness on the evening of Day 2.\nAt 9:15 A subject was administered 200 mg cap of squalamine. […] No nausea. […] A second smaller stool was passed at 12:30. […] The rapid effect on colonic motility seems unlikely to have been a direct effect of squalamine on the colon, but perhaps a downstream consequence of enteric nervous system stimulation. On Day 4, 30 mg codeine. No squalamine dosing. 7 P passed a loose stool of normal volume."}, "[3]": {"tested_on": "intrinsic primary afferent neurons (IPANs) of the colon", "experiment": "Patch-clamp of IPANs of the colon, squalamine applied to lumen, intact epithelium", "assay_type": "cell-based, mouse", "settings": "30 μM, brief puff onto lumen/epithelium", "text": "In this experiment the outer adventitial layer of the mouse colon is peeled away exposing the IPANs. Individual IPANs within the myenteric plexus of the wall of the colon are patched using a patch-clamp apparatus. These cells represent the major neuronal population that communicate sensory data from the gut. They synapse with the various nerve networks within the gut that influence muscle and secretory activity, as well as connecting with vagal nerve endings. Administration of squalamine at 30 μM to the lumen (applied via a 50 ms “puff” of solution) leads to a very sustained (10 min) burst of electrical activity (FIG. 3)."}, "[4]": {"settings": "cited from earlier work; for oral bioavailability: animals (rodents; mice and dogs)"}, "[5]": {"settings": "100 μM intraluminal, 5 experiments"}, "[6]": {"settings": "intraluminal, 3, 10, 30 and 100 μM evaluated"}, "[7]": {"settings": "single 100 mg oral capsule, empty stomach"}, "[8]": {"settings": "single 200 mg oral capsule, morning, empty stomach, one human"}}, "note": "“Also recorded” adds a separate entry of the source. Like-named read-outs stand apart in the source and are kept apart here.", "data": [{"substance": "squalamine", "values": [{"measurement": "latency to peak of the firing rate increase", "setting": "mesenteric nerve; [5]", "result": "12 ± 7.5", "unit": "min"}, {"measurement": "latency to the onset of the firing increase", "setting": "mesenteric nerve; [5]", "result": "4.4 ± 4.1", "unit": "min"}, {"measurement": "mesenteric nerve multiunit firing rate at peak response (mean±SD)", "setting": "mesenteric nerve; 100 μM intraluminal, 5 experiments, background 2.0±1.2 Hz, P=0.03", "result": "5.2±3.1", "unit": "Hz"}, {"measurement": "effect on mesenteric nerve firing frequency (FIGS. 1A-1C)", "setting": "mesenteric nerve; intraluminal squalamine", "result": "increases mesenteric nerve firing frequency"}, {"measurement": "concentration at which responses were discernible", "setting": "mesenteric nerve; [6]", "result": 30, "unit": "µM"}, {"measurement": "concentration at which robust and reproducible responses were first evident", "setting": "mesenteric nerve; [6]", "result": 100, "unit": "µM"}, {"measurement": "gastrointestinal response", "setting": "gastrointestinal tract; 200 mg oral capsule in the evening following a large meal, overnight and following morning", "result": "No gastrointestinal response"}, {"measurement": "duration of the Aminosterol-Induced GI Response", "setting": "gastrointestinal tract; following a single 200 mg oral dose", "result": "about 4 days"}, {"measurement": "period of bowel quiet after the watery discharge (Phase III)", "setting": "gastrointestinal tract; following the larger squalamine dose (for example 200 mg)", "result": "2 to 3", "unit": "days"}, {"measurement": "duration of bowel quiet", "setting": "gastrointestinal tract; [7]", "result": 2, "unit": "days"}, {"measurement": "nausea and watery diarrhea", "setting": "gastrointestinal tract; [7]", "result": "Neither nausea, nor watery diarrhea was experienced"}, {"measurement": "duration of nausea", "setting": "gastrointestinal tract; [8]", "result": "about 30 minutes"}, {"measurement": "first clear watery rectal discharge / diarrhea, time after dosing", "setting": "gastrointestinal tract; [8]", "result": "about 3 hours"}, {"measurement": "further episodes of watery discharge, time after dosing", "setting": "gastrointestinal tract; [8]", "result": 3.2, "unit": "h"}, {"measurement": "increased peristalsis, time after dosing", "setting": "gastrointestinal tract; [8]", "result": 2.5, "unit": "h"}, {"measurement": "nausea, time of onset after dosing", "setting": "gastrointestinal tract; [8]", "result": "≤ 2", "unit": "h"}, {"measurement": "usual bowel functions resumed, time after administration", "setting": "gastrointestinal tract; [8]", "result": "about 4 days"}, {"measurement": "volume of first clear watery discharge", "setting": "gastrointestinal tract; [8]", "result": "about 200 ml"}, {"measurement": "time without feces / to first bowel movement after dosing", "setting": "gastrointestinal tract; single 200 mg oral capsule, morning, empty stomach, normal behavior about 1 passage every 24 hours", "result": 2.5, "unit": "days"}, {"measurement": "estimated reduction of small intestinal motility", "setting": "gastrointestinal tract; single 200 mg oral dose, versus normal about 1 passage every 24 hours", "result": 2.5, "unit": "fold"}, {"measurement": "GI response", "setting": "[1]; 100 mg capsules for several days", "result": "without any noticeable GI symptoms"}, {"measurement": "GI response", "setting": "[1]; 200 mg daily", "result": "without any GI response"}, {"measurement": "GI response", "setting": "[1]; 300 mg daily", "result": "mild nausea"}, {"measurement": "mild nausea, time after dosing", "setting": "[1]; 300 mg daily", "result": 2, "unit": "h"}, {"measurement": "tumor status", "setting": "[1]; 2 months post surgery, dosing continued", "result": "no evidence of pulmonary tumors nor evidence of recurrence of any soft tissue tumor in the groin"}, {"measurement": "finding in surgically removed lung tumor", "setting": "[1]; 3 weeks after initiation of dosing", "result": "massive internal hemorrhage due to blood vessel damage"}, {"measurement": "effect on NHE-3 transporter", "setting": "NHE-3 transporter", "result": "inhibits the NHE-3 transporter"}, {"measurement": "bowel response", "setting": "[2]; 200 mg cap at 9:15 A on Day 3 of codeine 30 mg/acetaminophen 300 mg, no stool since start, stool at 11:15 A", "result": "passed a large soft, well formed stool with normal urgency; also recorded: A sense of bowel relief was appreciated"}, {"measurement": "nausea and rectal fluid", "setting": "[2]; 200 mg cap at 9:15 A on Day 3 of codeine dosing", "result": "No nausea; also recorded: No clear rectal fluid"}, {"measurement": "duration of burst of electrical activity / action potentials", "setting": "[3]", "result": 10, "unit": "min"}, {"measurement": "absorption from the gastrointestinal tract", "setting": "[4]; extensive studies in animals", "result": "neither squalamine nor Aminosterol 1436 can be absorbed to any extent"}, {"measurement": "oral bioavailability", "setting": "[4]", "result": "low bioavailability"}, {"measurement": "oral bioavailability", "setting": "[4]; listed as squalamine lactate", "result": "poorly bioavailable orally"}, {"measurement": "absorption by the subcutaneous and intraperitoneal routes", "setting": "[4]; rodents", "result": "well absorbed"}]}]}
